Reference: article PMC2120771 (The Journal of Cell Biology, 1996)

Assays:
Shigella flexneri M90T = test: Shigella intracellular motility in PtK2 cells before and after microinjection; assay type: cell-based
Listeria monocytogenes = conditions: microinjection; ref Southwick and Purich, 1995; cited from earlier work
profilin-VASP = conditions: in vitro; ref Reinhard et al., 1995; cited from earlier work
[1] = intracellular 80 nM, 2-4 min after microinjection
[2] = intracellular concentration 10 μM

CFEFPPPPTDE [Act A peptide]
Time after injection at which bacterial motility ceases (Shigella flexneri M90T; 800 nM needle concentration, estimated intracellular concentration 80 nM): ≤ 30 s | Time after injection at which phase-dense actin tails disappear (Shigella flexneri M90T; estimated intracellular concentration 80 nM): ≤ 30 s | Fraction of bacteria that resume migration (Shigella flexneri M90T; [1]): One quarter | Rate of resumed movement relative to velocities measured before injection (Shigella flexneri M90T; [1]): 25-30% | Effect on Shigella intracellular movement (Shigella flexneri M90T; intracellular concentration 8 nM (Fig. 5 B)): fails to inhibit | Postinjection/preinjection velocity (Shigella flexneri M90T; intracellular concentration 80 nM): 0.07 | Effect on Shigella intracellular movement (Shigella flexneri M90T; intracellular concentrations 400-800 nM (Fig. 5 B)): consistently block intracellular movement

YDPAPPPPPP [mosquito oostatic factor]
Effect on Listeria locomotion (Listeria monocytogenes): inhibits Listeria locomotion

(GPPPPP)3 [VASP peptide]
Intracellular concentration that inhibits Shigella movement (Shigella flexneri M90T; PtK2 cells, microinjection, estimated intracellular concentration): 10 µM | Postinjection/preinjection velocity (Shigella flexneri M90T; [2]): 0.15 | Postinjection velocity (Shigella flexneri M90T; intracellular concentration 10 μM, mean, SD): 0.02 - 0.05 μm/s | Effect on Shigella motility (Shigella flexneri M90T; intracellular concentrations 2 and 6 μM (Fig. 7 B), large standard deviations): variable inhibition | Dissociation of profilin from VASP (profilin-VASP): can dissociate profilin from VASP in vitro

VKSKIGSTDNIKYZPKGG [MAP-2 peptide, reference compound]
Postinjection/preinjection velocity (Shigella flexneri M90T; [2]): 1.00

poly-L-proline [reference compound]
Effect on Shigella velocity (Shigella flexneri M90T; increasing intracellular concentrations (Fig. 8 A), each point mean of 20-40 velocity measurements): dose-dependent slowing of bacterial velocity
